Assay results published in patent US20110212853A1, “NOVEL DIAGNOSTIC METHOD” (PROBIODRUG AG, priority 2010, published 2011).

How the values were obtained:
[1] = system: thioglycollate-induced peritonitis; test: mMCP-1 N1pE/mMCP-1 ratio and monocyte infiltration in mice treated with thioglycollate and QCI; type: in vivo, mouse; conditions: QCI intraperitoneal 30 minutes before thioglycollate
Experimental: To capture mouse MCP-1, commercially available polyclonal antiserum rabbit anti mJE (Peprotech, Hamburg, Germany) as capture antibody which specifically binds mouse MCP-1 was diluted in PBS to 500 ng/ml and immobilized in polystyrene 96-well microtitre plates over 4-7 nights at 4° C. Thereafter, blocking occurred for 2 hours at room temperature with ELISA Blocker (Thermo Fisher Scientific, Waltham, USA). For preparation of the standard curve recombinant mMCP-1 was incubated with mouse Glutaminyl Cyclase (QC) in order to obtain mMCP-1 N1pE. The recombinant mMCP-1 N1pE standard peptide was serially diluted with ELISA Blocker from 1950 pg/ml down to 19.5 pg/ml and added to the wells in duplicate. Two wells filled with ELISA Blocker represent the standard curve value 0 pg/ml. After an incubation period of 2 hours at room temperature, plates were washed at least three times with TBS-T. For detection of mMCP-1 N1pE, the MCP-1 N1pE antibody clone 348-2C9 together with HRP-conjugated anti mouse antibody were both diluted in ELISA Blocker to final concentrations of 500 ng/ml. […] Absorption at 450/540 nm was determined by a Tecan Sunrise plate reader. […]
Thioglycollate was injected intraperitoneal in mice. […] Infiltrated monocytes were counted by FACS analysis via double staining of 7/4 and Ly6G antigens.

RAW 264.7 cells = test: mMCP-1 N1pE/mMCP-1 ratio by ELISA in LPS stimulated RAW 264.7 treated with QCI; type: cell-based, mouse; conditions: RAW 264.7, 10 ng/ml LPS, 24 h, different QCI concentrations
Experimental: To capture mouse MCP-1, commercially available polyclonal antiserum rabbit anti mJE (Peprotech, Hamburg, Germany) as capture antibody which specifically binds mouse MCP-1 was diluted in PBS to 500 ng/ml and immobilized in polystyrene 96-well microtitre plates over 4-7 nights at 4° C. Thereafter, blocking occurred for 2 hours at room temperature with ELISA Blocker (Thermo Fisher Scientific, Waltham, USA). For preparation of the standard curve recombinant mMCP-1 was incubated with mouse Glutaminyl Cyclase (QC) in order to obtain mMCP-1 N1pE. The recombinant mMCP-1 N1pE standard peptide was serially diluted with ELISA Blocker from 1950 pg/ml down to 19.5 pg/ml and added to the wells in duplicate. Two wells filled with ELISA Blocker represent the standard curve value 0 pg/ml. After an incubation period of 2 hours at room temperature, plates were washed at least three times with TBS-T. For detection of mMCP-1 N1pE, the MCP-1 N1pE antibody clone 348-2C9 together with HRP-conjugated anti mouse antibody were both diluted in ELISA Blocker to final concentrations of 500 ng/ml. […] Absorption at 450/540 nm was determined by a Tecan Sunrise plate reader.
In order to analyse the effect of QCI on the ratio of mouse MCP-1 N1pE/mouse MCP-1, the mouse macrophage cell line RAW 264.7 was stimulated with LPS in the absence or presence of increasing concentrations of the QC inhibitor QCI. […] After 24 h cell culture supernatants were analyzed according to the protocol in Example 9. […]

COc1ccc(NC(=S)NCCCn2ccnc2)cc1OC.Cl [QCI, 1-(3-(1H-imidazol-1-yl)propyl)-3-(3,4-dimethoxyphenyl)thiourea hydrochloride] was tested, and the “number of infiltrating monocytes to the peritoneum” value ([1]; FACS, FIG. 23B) was “decreased number”, the “mMCP-1 N1pE/mMCP-1 ratio in peritoneal lavage fluid” value ([1]; lavage after 4 h) was “dose dependent reduction” and the “amount of mMCP-1 N1pE” value (RAW 264.7 cells) was “reduced by QCI in a concentration dependent manner”. For the same compound, the “amount of total mMCP-1” value (RAW 264.7 cells) was “remains unaffected” and the “ratio of mMCP-1 N1pE/mMCP-1” value (RAW 264.7 cells) was “decreases with increasing inhibitor concentrations”.
